Experimental data reported in US20260372303A1, “5-Fluoro-4-Imino-3-Methyl-1-Tosyl-3, 4-Dihydropyrimidin-2(1H) -One for Fungicide-Resistant Fungus” (priority 2022, published 2026).

Columns and labels:
Assay type in all cases: in vivo
[1] = tested on: Zymoseptoria tritici strain Zt 38-02; assay: In planta preventive efficacy on wheat cv. Alixan against Zymoseptoria tritici strain Zt 38-02; conditions: for Disease Severity Intensity: % of length of 2nd leaf blade, preventive 24 h; for AUDPC: control 1261.4
Description: (§1) A series of experiments were conducted to evaluate the efficacy of flumetylsulforim (ADF-16) for treating different strains of Zymoseptoria tritici in comparison with commercially available fungicides. Table 1 describes the Z. tritici strains used in this study and Table 2 describes the fungicides used in this study.
(§2) Winter wheat plants cv. Alixan (Limagrain) at the BBCH 12 growth stage were treated preventively with sterile distilled water (control), ADF-16, penthiopyrad, metconazole or tebuconazole at the rates described in Table 2 with a hand sprayer at 2 bars.
(§3) After treatment, wheat plants were left to dry at room temperature for 1 hour and then placed in a climatic chamber: temperature of 24 °C day/18 °C night-photoperiod of 16 h light/8 h dark and a relative humidity of 65%.
(§4) Untreated or treated whole wheat plants were inoculated 24-hours post-treatment with a calibrated pycnospore suspension of Z. tritici strains Zt StA, Zt 61, Zt 99, Zt 20, Zt 19-52, and Zt 38-02. Three replicates (pots) of 6 wheat plants each were used for each condition tested.
(§5) After inoculation, pots were transferred in a climatic chamber: temperature of 20 °C day/17 °C night—photoperiod of 16 h light/8 h dark and controlled relative humidity.
(§6) Disease assessments were carried out at 15 days post inoculation (dpi), 21 dpi and 28 dpi by measuring the length of the necrosis on the second leaf blade. The intensity of infection was then determined as a percentage of the total length of 2nd leaf blade.
(§7) The fungicide efficacies were determined from the Area Under the Disease Progress Curve (AUDPC) values and expressed as a percentage of the untreated control.
(§8) The AUDPC is a quantitative measure of disease intensity over time. The most commonly used method for estimating the AUDPC, the trapezoidal method, is performed by multiplying the average disease intensity between each pair of adjacent timepoints by the corresponding time interval and this for each time interval. The AUDPC is determined with the following formula by adding all of the trapezoids:
(§9) [formula] • yi=disease severity at the ith observation • ti=time (days) at the ith observation • N=total number of observations

[2] = tested on: Zymoseptoria tritici strain Zt StA; assay: In planta preventive efficacy on wheat cv. Alixan against Zymoseptoria tritici strain Zt StA (control strain, sensitive); conditions: for Disease Severity Intensity: % of length of 2nd leaf blade, preventive 24 h; for AUDPC: control 781.6
Description: as §1, §2, §3, §4, §5, §6, §7, §8, §9

[3] = tested on: Zymoseptoria tritici strain Zt 20; assay: In planta preventive efficacy on wheat cv. Alixan against Zymoseptoria tritici strain Zt 20; conditions: % of length of 2nd leaf blade, preventive 24 h
Description: as §1, §2, §3, §4, §5, §6, §7, §8, §9

[4] = tested on: Zymoseptoria tritici strain Zt 19-52; assay: In planta preventive efficacy on wheat cv. Alixan against Zymoseptoria tritici strain Zt 19-52; conditions: % of length of 2nd leaf blade, preventive 24 h
Description: as §1, §2, §3, §4, §5, §6, §7, §8, §9

[5] = tested on: Zymoseptoria tritici strain Zt 99; assay: In planta preventive efficacy on wheat cv. Alixan against Zymoseptoria tritici strain Zt 99; conditions: for Disease Severity Intensity: % of length of 2nd leaf blade, preventive 24 h; for AUDPC: control 1352.9
Description: as §1, §2, §3, §4, §5, §6, §7, §8, §9

[6] = tested on: Zymoseptoria tritici strain Zt 61; assay: In planta preventive efficacy on wheat cv. Alixan against Zymoseptoria tritici strain Zt 61; parameters: fungicide efficacy: concentration or dose not given beside the values; conditions: for Disease Severity Intensity: % of length of 2nd leaf blade, preventive 24 h; for AUDPC: control 1194.9
Description: as §1, §2, §3, §4, §5, §6, §7, §8, §9

[7] = rate N (g a.i./ha): ADF-16 100, penthiopyrad 200, metconazole 90, tebuconazole 250
[8] = rate N/2.5 (g a.i./ha): ADF-16 40, penthiopyrad 80, metconazole 36, tebuconazole 100
[9] = 15 dpi, rate N (g a.i./ha): ADF-16 100, penthiopyrad 200, metconazole 90, tebuconazole 250, control also no disease
[10] = 15 dpi, rate N/2.5 (g a.i./ha): ADF-16 40, penthiopyrad 80, metconazole 36, tebuconazole 100, control also no disease

SMILES: CC(C)(C)C(O)(CCc1ccc(Cl)cc1)Cn1cncn1 (stereo not drawn) [Tebuconazole]
- Disease Severity Intensity ([1]; 15 dpi, rate N (g a.i./ha): ADF-16 100, penthiopyrad 200, metconazole 90, tebuconazole 250, control 36.0): 0.0 +/− 0.0b %
- Disease Severity Intensity ([1]; 15 dpi, rate N/2.5 (g a.i./ha): ADF-16 40, penthiopyrad 80, metconazole 36, tebuconazole 100, control 36.0): 0.0 +/− 0.0b %
- Disease Severity Intensity ([1]; 21 dpi, rate N (g a.i./ha): ADF-16 100, penthiopyrad 200, metconazole 90, tebuconazole 250, control 84.3): 9.3 +/− 1.9e %
- Disease Severity Intensity ([1]; 21 dpi, rate N/2.5 (g a.i./ha): ADF-16 40, penthiopyrad 80, metconazole 36, tebuconazole 100, control 84.3): 62.2 +/− 4.5bc %
- Disease Severity Intensity ([1]; 28 dpi, rate N (g a.i./ha): ADF-16 100, penthiopyrad 200, metconazole 90, tebuconazole 250, control 95.7): 45.1 +/− 4.0d %
- Disease Severity Intensity ([1]; 28 dpi, rate N/2.5 (g a.i./ha): ADF-16 40, penthiopyrad 80, metconazole 36, tebuconazole 100, control 95.7): 93.3 +/− 0.9ab %
- Efficacy (from AUDPC, percentage of the untreated control) [1, 7]: 82.7%
- AUDPC [1, 7]: 218.1 ± 3.5 days
- Efficacy (from AUDPC, percentage of the untreated control) [1, 8]: 42.3%
- AUDPC [1, 8]: 728.1 +/− 31.6b
- Disease Severity Intensity [2, 9]: No disease
- Disease Severity Intensity [2, 10]: No disease
- Disease Severity Intensity ([2]; 21 dpi, rate N (g a.i./ha): ADF-16 100, penthiopyrad 200, metconazole 90, tebuconazole 250, control 36.5): 0.0 +/− 0.0b %
- Disease Severity Intensity ([2]; 21 dpi, rate N/2.5 (g a.i./ha): ADF-16 40, penthiopyrad 80, metconazole 36, tebuconazole 100, control 36.5): 0.0 +/− 0.0b %
- Disease Severity Intensity ([2]; 28 dpi, rate N (g a.i./ha): ADF-16 100, penthiopyrad 200, metconazole 90, tebuconazole 250, control 77.4): 0.0 +/− 0.0b %
- Disease Severity Intensity ([2]; 28 dpi, rate N/2.5 (g a.i./ha): ADF-16 40, penthiopyrad 80, metconazole 36, tebuconazole 100, control 77.4): 0.0 +/− 0.0b %
- Efficacy (from AUDPC, percentage of the untreated control) [2, 7]: 100%
- AUDPC [2, 7]: 0.0 +/− 0.0b
- Efficacy (from AUDPC, percentage of the untreated control) [2, 8]: 100%
- AUDPC [2, 8]: 0.0 +/− 0.0b
- Disease Severity Intensity [3, 9]: No disease
- Disease Severity Intensity [3, 10]: No disease
- Disease Severity Intensity ([3]; 21 dpi, rate N (g a.i./ha): ADF-16 100, penthiopyrad 200, metconazole 90, tebuconazole 250, control 77.2): 0.6 +/− 0.5de %
- Disease Severity Intensity ([3]; 21 dpi, rate N/2.5 (g a.i./ha): ADF-16 40, penthiopyrad 80, metconazole 36, tebuconazole 100, control 77.2): 4.6 +/− 1.3c %
- Disease Severity Intensity ([3]; 28 dpi, rate N (g a.i./ha): ADF-16 100, penthiopyrad 200, metconazole 90, tebuconazole 250, control 95.5): 17.1 +/− 1.9e %
- Disease Severity Intensity ([3]; 28 dpi, rate N/2.5 (g a.i./ha): ADF-16 40, penthiopyrad 80, metconazole 36, tebuconazole 100, control 95.5): 54.8 +/− 3.7c %
- Disease Severity Intensity ([4]; 15 dpi, rate N (g a.i./ha): ADF-16 100, penthiopyrad 200, metconazole 90, tebuconazole 250, control 22.0): 0.0 +/− 0.0b %
- Disease Severity Intensity ([4]; 15 dpi, rate N/2.5 (g a.i./ha): ADF-16 40, penthiopyrad 80, metconazole 36, tebuconazole 100, control 22.0): 0.0 +/− 0.0b %
- Disease Severity Intensity ([4]; 21 dpi, rate N (g a.i./ha): ADF-16 100, penthiopyrad 200, metconazole 90, tebuconazole 250, control 81.7): 0.2 +/− 0.2c %
- Disease Severity Intensity ([4]; 21 dpi, rate N/2.5 (g a.i./ha): ADF-16 40, penthiopyrad 80, metconazole 36, tebuconazole 100, control 81.7): 0.7 +/− 0.4bc %
- Disease Severity Intensity ([4]; 28 dpi, rate N (g a.i./ha): ADF-16 100, penthiopyrad 200, metconazole 90, tebuconazole 250, control 91.0): 7.9 +/− 2.2cd %
- Disease Severity Intensity ([4]; 28 dpi, rate N/2.5 (g a.i./ha): ADF-16 40, penthiopyrad 80, metconazole 36, tebuconazole 100, control 91.0): 13.1 +/− 2.3c %
- Disease Severity Intensity ([5]; 15 dpi, rate N (g a.i./ha): ADF-16 100, penthiopyrad 200, metconazole 90, tebuconazole 250, control 47.9): 0.0 +/− 0.0d %
- Disease Severity Intensity ([5]; 15 dpi, rate N/2.5 (g a.i./ha): ADF-16 40, penthiopyrad 80, metconazole 36, tebuconazole 100, control 47.9): 0.0 +/− 0.0d %
- Disease Severity Intensity ([5]; 21 dpi, rate N (g a.i./ha): ADF-16 100, penthiopyrad 200, metconazole 90, tebuconazole 250, control 81.0): 1.5 +/− 0.8f %
- Disease Severity Intensity ([5]; 21 dpi, rate N/2.5 (g a.i./ha): ADF-16 40, penthiopyrad 80, metconazole 36, tebuconazole 100, control 81.0): 12.1 +/− 1.7e %
- Disease Severity Intensity ([5]; 28 dpi, rate N (g a.i./ha): ADF-16 100, penthiopyrad 200, metconazole 90, tebuconazole 250, control 92.2): 12.8 +/− 2.5d %
- Disease Severity Intensity ([5]; 28 dpi, rate N/2.5 (g a.i./ha): ADF-16 40, penthiopyrad 80, metconazole 36, tebuconazole 100, control 92.2): 58.7 +/− 4.6c %
- Efficacy (from AUDPC, percentage of the untreated control) [5, 7]: 96.0%
- AUDPC [5, 7]: 54.0 ± 3.3 g
- Efficacy (from AUDPC, percentage of the untreated control) [5, 8]: 79.0%
- AUDPC [5, 8]: 283.9 +/− 30.0f^
- Disease Severity Intensity [6, 9]: No disease
- Disease Severity Intensity [6, 10]: No disease
- Disease Severity Intensity ([6]; 21 dpi, rate N (g a.i./ha): ADF-16 100, penthiopyrad 200, metconazole 90, tebuconazole 250, control 63.3): 1.5 +/− 0.9d %
- Disease Severity Intensity ([6]; 21 dpi, rate N/2.5 (g a.i./ha): ADF-16 40, penthiopyrad 80, metconazole 36, tebuconazole 100, control 63.3): 11.8 +/− 3.6c %
- Disease Severity Intensity ([6]; 28 dpi, rate N (g a.i./ha): ADF-16 100, penthiopyrad 200, metconazole 90, tebuconazole 250, control 88.1): 30.7 +/− 5.3d %
- Disease Severity Intensity ([6]; 28 dpi, rate N/2.5 (g a.i./ha): ADF-16 40, penthiopyrad 80, metconazole 36, tebuconazole 100, control 88.1): 54.3 +/− 6.2c %
- fungicide efficacy ([6]; higher application rates (N)): ≥ 85%
- fungicide efficacy ([6]; lower application rates (N/2.5)): ≤ 70%
- Efficacy (from AUDPC, percentage of the untreated control) [6, 7]: 89.5%
- AUDPC [6, 7]: 125.1 ± 46.8 days
- Efficacy (from AUDPC, percentage of the untreated control) [6, 8]: 70.3%
- AUDPC [6, 8]: 354.9 +/− 103.8bc
